Results from patent publication US5250537A, “5,6,7,8,9,10-hexahydro-7 ,10-iminocyclohept[b]indole,-6,7,8,9,10-hexahydro-7,11-imino-5H-cyclooct[ b]indole and substituted derivatives” (Scios Nova Inc., priority 1992, dated 1993).
Read-outs that look alike come from different tables or passages of the source.

Tests used:
[1] = target: T1, dopamine (D-2) receptors (Rattus norvegicus, UniProt P61169); assay: In Vitro Dopamine (D-2) Receptor Binding, [3H]sulpiride
T1 construct: the corpus striatum was dissected and homogenized; from tissue; host or cells: rat corpus striatum membranes
Experimental: On the day of assay, rats were sacrificed by decapitation, the corpus striatum was dissected and homogenized in 20 volumes of ice-cold 50 mM Tris HCl (pH 7.5, 25° C.). The homogenate was centrifuged (4° C.) at 48,000×g for 10 minutes and the resulting pellet was resuspended in 20 volumes of fresh buffer and recentrifuged. […] A portion of the suspension (800 μL) was added in triplicate to tubes containing 3 nM [^3 H]sulpiride and the test compound. The final assay volume was 1 mL; haloperidol (10 μM) was used to determine non-specific binding. Following a 60 minute incubation at 25° C., the reactions were terminated by rapid filtration over Whatman GF/B filters which had been pretreated in a solution of 0.3% (w/v) of aqueous polyethylenimine. Filters were washed three times using 5 mL of ice-cold buffer and processed using standard procedures to determine radioactivity. IC50 values were obtained from concentration-response curves in which a number of concentrations of test compound were examined. Ki values were determined using the Cheng-Prusoff equation.

[2] = target: T2, sigma receptor ([3H](+)-3-PPP site) (Cavia porcellus, UniProt Q60492); assay: In Vitro Sigma Receptor Binding, [3H](+)-3-PPP; design: species or system guinea pig; conditions: guinea pig brain; 45 minutes at 25° C.; read-out: Sigma [3H](+)-3-PPP binding IC50
T2 construct: frozen guinea pig brains; tissue PelFreez Biologicals, Rogers, AK; host or cells: guinea pig brain membranes
Experimental: (§1) For both assays frozen guinea pig brains (PelFreez Biologicals, Rogers, AK) were thawed and homogenized in 10 volumes (w/v) of ice cold 0.32M sucrose using 10 strokes of a motor-drivenglass-fitted teflon pestle adjusted to 600 rpm. The homogenate was centrifuged (4° C.) at 900× g for 10 minutes and the resultant supernatant collected and centrifuged at 22,000×g for 20 minutes. The pellet obtained from the centrifugation was resuspended in 10 volumes of 50 mM Tris HCl (pH 7.4, 25° C.) and incubated for 30 minutes at 37° C. Following the preincubation, the homogenate was centrifuted at 22,000×g for 20 minutes and the final pellet was resuspended in buffer to a protein concentration of 0.5-1.0 mg/mL for use in the assay.
(§2) Binding reactions were initiated by the addition of tissue (800 μL) to tubes containing assay buffer, the radioligand (final concentration 1-3 nM) and the compound of interest. Haloperidol (10 μM) and (+)-3-PPP (10 μM) were used to determine the levels of […] [^3 H]DTG and [^3 H](+)PPP binding, respectively. Final assay volume was 1 mL. Reactions were allowed to proceed for 45 minutes at 25° C. and terminated by rapid filtration over Whatman GF/B filters which were washed 3 times with 5 mL of cold buffer. Radioactivity trapped on the filters was determined using routine methods. […] All assays were performed using triplicate determinations. For comparison purposes, IC50 values are reported rather than Ki values.

[3] = target: sigma receptor ([3H]DTG site); assay: In Vitro Sigma Receptor Binding, [3H]DTG; conditions: guinea pig brain; 45 minutes at 25° C.
Experimental: as §1, §2

[4] = target: T3, serotonin 5-HT2 receptors (Rattus norvegicus, UniProt P14842); assay: In Vitro Serotonin (5-HT2) Receptor Binding, [3H]ketanserin; conditions: for inhibition at 1 µM: read-out: Serotonin 5-HT2 [3H]ketanserin, % @ 1 μM; for Ki: rat cortical membranes, 1 nM [3H]ketanserin
T3 construct: Rat cortical synaptosomal membranes were prepared on the day of assay; from tissue; host or cells: rat frontal cortex synaptosomal membranes
Experimental: The potency of compounds to inhibit the specific binding of [^3 H]ketanserin (84.2 Ci/mM) to serotonin 5-HT2 receptors was determined as detailed previously [J. E. Leysen, C. J. E. Niemegers, J. M. Van Neuten and P. M. Laduron, Mol. Pharmacol., 21, 301-314 (1982)]. Rat cortical synaptosomal membranes were prepared on the day of assay. Animals were sacrified by decapitation, the frontal cortex was removed and homogenized in 10 volumes (w/v) of ice-cold 0.32M sucrose using a motor driven teflon pestle fitted to a glass tube. The synaptosomal pellet was suspended in 50 mM Tris HCl (pH 7.6 at 25° C.) to a concentration of 7.5 mg original wet weight/mL. For the binding reaction, 400 μL of this tissue suspension was added to polypropylene tubes containing 50 mM Tris HCl and [^3 H]ketanserin (final concentration of 1 nM) in a final assay volume of 0.5 mL. Following a 15 minute incubation at 37° C., the binding reaction was terminated by rapid vacuum filtration over Whatman GF/B filters (presoaked in 0.1% PEI) followed by 3×4 mL washes with ice cold 50 mM Tris HCl. Nonspecific binding was assessed in the presence of 10 μM methysergide. All incubations were performed in triplicate. IC50 values were determined using log logit analysis.

[5] = rat corpus striatum, 3 nM [3H]sulpiride, read-out: Dopamine D-2 [3H]sulpiride Ki
[6] = Dopamine D-2 [3H]sulpiride Ki, rat corpus striatum, 3 nM [3H]sulpiride

T3 sequence (P14842 whole entry): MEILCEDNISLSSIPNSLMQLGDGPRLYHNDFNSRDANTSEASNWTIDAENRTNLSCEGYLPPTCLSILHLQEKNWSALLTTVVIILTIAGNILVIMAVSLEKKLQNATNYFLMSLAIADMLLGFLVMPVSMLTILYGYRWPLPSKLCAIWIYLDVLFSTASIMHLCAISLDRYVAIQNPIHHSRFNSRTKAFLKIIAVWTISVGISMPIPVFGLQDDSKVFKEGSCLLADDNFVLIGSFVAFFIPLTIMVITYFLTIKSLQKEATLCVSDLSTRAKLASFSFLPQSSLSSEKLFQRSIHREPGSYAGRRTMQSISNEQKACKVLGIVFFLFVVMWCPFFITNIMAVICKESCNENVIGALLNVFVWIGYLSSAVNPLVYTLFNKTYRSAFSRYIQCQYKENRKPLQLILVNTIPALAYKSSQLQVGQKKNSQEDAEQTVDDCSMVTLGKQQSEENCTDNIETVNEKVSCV
T2 sequence (Q60492 whole entry): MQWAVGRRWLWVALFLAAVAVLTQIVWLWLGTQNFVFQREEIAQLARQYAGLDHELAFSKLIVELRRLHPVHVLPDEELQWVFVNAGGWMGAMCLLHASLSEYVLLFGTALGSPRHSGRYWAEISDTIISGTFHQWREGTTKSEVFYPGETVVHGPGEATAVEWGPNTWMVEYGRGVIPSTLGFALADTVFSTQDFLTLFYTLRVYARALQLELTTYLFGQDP
T1 sequence (P61169 whole entry): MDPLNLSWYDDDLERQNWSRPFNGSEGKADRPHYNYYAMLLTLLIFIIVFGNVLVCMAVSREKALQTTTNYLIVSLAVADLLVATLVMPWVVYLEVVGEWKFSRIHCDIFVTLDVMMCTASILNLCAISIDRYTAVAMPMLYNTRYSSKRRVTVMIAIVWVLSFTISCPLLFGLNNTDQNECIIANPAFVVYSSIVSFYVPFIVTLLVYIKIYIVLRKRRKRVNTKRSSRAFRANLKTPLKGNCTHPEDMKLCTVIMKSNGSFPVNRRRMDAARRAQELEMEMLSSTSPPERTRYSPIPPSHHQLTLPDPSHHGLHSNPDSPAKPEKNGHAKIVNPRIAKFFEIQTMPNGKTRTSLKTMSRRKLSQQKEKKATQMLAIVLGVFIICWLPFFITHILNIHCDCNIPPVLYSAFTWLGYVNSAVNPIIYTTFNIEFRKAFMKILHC

SMILES	Ki [1, 5] [nM]	IC50 [2] [nM]	IC50 [3] [nM]	inhibition at 1 µM [4] [%]	Ki [4] [nM]	Ki ([1]; read-out: Dopamine D-2 [3H]sulpiride Ki) [nM]	Ki [1, 6] [nM]
CC(CCc1ccccc1)N1C2CCC1c1c([nH]c3ccccc13)C2 (single isomer, unassigned) [1 (high Rf) H H CH(CH3)(CH2)2 Ph 2]	1110	1500	23	–	–	–	–
CC(CCc1ccccc1)N1C2CCC1c1c([nH]c3ccccc13)C2 (single isomer, unassigned) [1 (low Rf) H H CH(CH3)(CH2)2 Ph 2]	530	1160	119	72.8	–	–	–
Clc1ccc(CCN2C3CCC2c2c([nH]c4ccccc24)C3)cc1Cl (centres unmarked) [1 H H (CH2)2 3,4-Cl2 Ph 2]	3430	–	–	6.7	–	–	–
CCCN1C2CCC1c1c([nH]c3ccccc13)C2 (centres unmarked) [1 H H (CH2)2 CH3 2]	14400 ± 4400	–	–	–	–	–	–
C=CCCN1C2CCC1c1c([nH]c3ccccc13)C2 (centres unmarked) [1 H H (CH2)2 CHCH2 2]	710	–	–	12.3	–	–	–
c1ccc(C(CCN2C3CCC2c2c([nH]c4ccccc24)C3)c2ccccc2)cc1 (centres unmarked) [1 H H (CH2)2 CHPh2 2]	4520	–	–	27.3	–	–	–
Clc1ccc(OCCN2C3CCC2c2c([nH]c4ccccc24)C3)cc1 (centres unmarked) [1 H H (CH2)2 O-4-ClPh 2]	530	5980 ± 3510	268 ± 38	–	377	–	–
c1ccc(OCCN2C3CCC2c2c([nH]c4ccccc24)C3)cc1 (centres unmarked) [1 H H (CH2)2 OPh 2]	2600	534 ± 57	110 ± 14	–	20	–	–
c1ccc(CCN2C3CCC2c2c([nH]c4ccccc24)C3)cc1 (centres unmarked) [1 H H (CH2)2 Ph 2]	840	–	–	8.8	–	–	–
O=C(CCCN1C2CCC1c1c([nH]c3ccccc13)C2)c1ccc(F)cc1 (centres unmarked) [1 H H (CH2)3 CO 4-FPh 2]	280	–	–	–	0.82	–	–
Fc1ccc(OCCCN2C3CCC2c2c([nH]c4ccccc24)C3)cc1 (centres unmarked) [1 H H (CH2)3 O-4-FPh 2]	–	–	–	–	11.4	–	–
c1ccc(OCCCN2C3CCC2c2c([nH]c4ccccc24)C3)cc1 (centres unmarked) [1 H H (CH2)3 OPh 2]	1270 ± 260	262 ± 19	132 ± 16	–	22.9	–	–
c1ccc(CCCN2C3CCC2c2c([nH]c4ccccc24)C3)cc1 (centres unmarked) [1 H H (CH2)3 Ph 2]	2600	–	–	–	106	–	–
Fc1ccc(CCCCN2C3CCC2c2c([nH]c4ccccc24)C3)cc1 (centres unmarked) [1 H H (CH2)4 4-FPh 2]	–	–	–	–	22.1	1160	–
O=C(CCCCN1C2CCC1c1c([nH]c3ccccc13)C2)c1ccc(F)cc1 (centres unmarked) [1 H H (CH2)4 CO 4-FPh 2]	–	224	131	–	–	–	3.5
c1ccc(OCCCCN2C3CCC2c2c([nH]c4ccccc24)C3)cc1 (centres unmarked) [1 H H (CH2)4 OPh 2]	100	205	88 ± 15	–	48	–	–
c1ccc(CCCCN2C3CCC2c2c([nH]c4ccccc24)C3)cc1 (centres unmarked) [1 H H (CH2)4 Ph 2]	–	–	–	–	56.5	–	720
O=C1CC2(CCCC2)CC(=O)N1CCCCN1C2CCC1c1c([nH]c3ccccc13)C2 (centres unmarked) [1 H H (CH2)4 [drawing 3] 2]	–	–	–	12	–	–	2380 ± 560
c1ccc(CCCCCN2C3CCC2c2c([nH]c4ccccc24)C3)cc1 (centres unmarked) [1 H H (CH2)5 Ph 2]	680 ± 230	348 ± 70	107 ± 59	–	42.5	–	–
c1ccc2c3c([nH]c2c1)CC1CCC3N1 (centres unmarked) [1 H H -- H 2]	100000	2180	–	0.2	–	–	–
